From patent publication US20100209934A1, “METHOD OF IDENTIFYING AGENTS WHICH MODULATE THE ACTIVITY OF CALCIUM-ACTIVATED CHLORIDE CHANNEL” (SNU R&DB FOUNDATION, priority 2007, published 2010)

What was measured:
mANO1 [1] = molecular target: T1, mANO1 (Mus musculus, UniProt Q8BHY3, S527P); experiment: Inhibition of endothelin-1 evoked currents in mANO1-ETAR/HEK cells by Cl− channel and CaCC blockers; type: cell-based; parameters: expressed in transfected cells; details: ANO1/ETAR-HEK cells; blockers 10 μM (mefloquine 5 μM) applied 5 min before second 50 nM endothelin-1
T1 sequence (Q8BHY3 1-960 S527P): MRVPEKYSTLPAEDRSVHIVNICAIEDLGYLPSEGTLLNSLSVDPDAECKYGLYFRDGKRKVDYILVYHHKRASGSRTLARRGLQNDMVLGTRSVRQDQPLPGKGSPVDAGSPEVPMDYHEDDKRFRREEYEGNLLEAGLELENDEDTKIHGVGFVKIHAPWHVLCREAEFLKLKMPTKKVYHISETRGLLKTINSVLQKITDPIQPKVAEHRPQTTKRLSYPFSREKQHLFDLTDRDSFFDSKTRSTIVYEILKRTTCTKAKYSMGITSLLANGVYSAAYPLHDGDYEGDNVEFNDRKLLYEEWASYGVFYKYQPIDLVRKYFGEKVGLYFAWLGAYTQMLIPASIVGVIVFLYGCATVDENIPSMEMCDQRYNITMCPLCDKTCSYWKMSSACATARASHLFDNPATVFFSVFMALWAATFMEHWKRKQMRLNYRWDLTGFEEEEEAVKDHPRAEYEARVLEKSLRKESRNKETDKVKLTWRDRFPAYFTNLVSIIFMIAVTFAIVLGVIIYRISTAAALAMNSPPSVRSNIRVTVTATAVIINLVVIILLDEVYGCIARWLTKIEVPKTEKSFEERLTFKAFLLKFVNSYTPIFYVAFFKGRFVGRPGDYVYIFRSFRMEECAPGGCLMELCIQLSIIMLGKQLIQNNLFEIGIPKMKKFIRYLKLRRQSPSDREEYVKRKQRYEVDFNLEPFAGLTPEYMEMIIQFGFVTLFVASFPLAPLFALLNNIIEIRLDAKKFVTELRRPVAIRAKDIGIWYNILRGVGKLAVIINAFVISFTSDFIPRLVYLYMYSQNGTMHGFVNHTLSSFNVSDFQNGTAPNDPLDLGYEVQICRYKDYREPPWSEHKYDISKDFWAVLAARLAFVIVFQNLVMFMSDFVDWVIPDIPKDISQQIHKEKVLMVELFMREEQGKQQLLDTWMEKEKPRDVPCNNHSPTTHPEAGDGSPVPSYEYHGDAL
Procedure: B. Inhibition of endothelin-1 evoked currents in mANO1-ETAR/HEK cells by Cl^− channel blockers as well as classical inhibitors (each, n=5) of native CaCCs. Chemicals in 10 μM (except mefloquine, 5 μM) were applied 5 min before the second application of endothelin-1. Control (n=12). **p<0.001 compared to control (ANOVA, Duncan's post hoc test). (Error bars=Mean±S.E.M)
(§1) To form gigaseals, individual cell surfaces were touched with a ˜3 Mohm Sylgard-coated glass pipette with gentle suction, and the junction potential was then adjusted to 0 mV. The membrane in contact with the pipette was then ruptured by suction to form a whole cell. The pipette solution contained 140 mM NMDG-Cl, 2 mM MgCl2, 10 mM HEPES, 2 mM ATP, and 0.3 mM GTP adjusted to pH 7.2, and the bath solution contained 140 mM NMDG-Cl, 2 mM MgCl2 and 10 mM HEPES (pH 7.2). For ion selectivity experiments, 140 mM NMDG-Cl was replaced with equimolar NaCl, NaL NaBr, NaNO3, NaF, or Na-gluconate in the bath solution. To determine current-voltage relationships, voltage ramps from −80 or −100 mV to +80 or +100 mV were delivered for 350 ms, or voltage-pulses from −100 mV to +100 mV were delivered for 400 ms to whole cells. When mANO1 was activated by 300 nM intracellular Ca^2+, voltage-pulses of 2500 ms were delivered. Whole-cell currents were amplified using an Axopatch 200B amplifier (Molecular Device, Sunnyvale, Calif.) and stored in a personal computer after digitization by a Digidata 1440 (Molecular Device). For single-channel current recordings, cell-attached or inside-out patches were formed from gigaseals. The pipette and control bath solution contained 140 mM NMDG-Cl, 2 mM MgCl2 and 10 mM HEPES (pH 7.2). […] To create amplitude histograms, pClamp software (version 6.0, Molecular Device) was used to analyze open and closed single-channel current events. The half-amplitude algorithm was used to determine an open event. The minimum duration of an open event was set at 0.1 ms.
(§2) LPA-induced ANO1 currents were blocked by Cl^− channel blockers. The Cl^− channel blockers were applied 10˜20 min before the LPA application. […] This blockade of agonist-induced ANO1 currents by DIDS, niflumic acid, or NPPB were also observed in mammalian cells transfected with mANO1.
In addition, modifiers of various enzymes or transporters such as fluoxetine (serotonin reuptake inhibitor), tamoxifen (estrogen receptor modulator), n-phenyl-anthranilic acid (NPA, cyclooxygenase inhibitor), and mefloquine (antimalarial drug) are known to block native CaCCs (Eggermont, J., Proc Am Thorac Soc. 1, 22-7 (2004); Nilius, B. et al. J Physiol. 498, 381-96 (1997); Nilius, B. & Droogmans, G., Acta Physiol Scand 177, 119-47 (2003)). If ANO1 is a CaCC, mANO1 should be inhibited by these CaCC blockers.

mANO1 [2] = molecular target: T1, mANO1; experiment: Two-electrode voltage clamp currents in Xenopus oocytes injected with mANO1 complementary RNA; type: cell-based; parameters: expressed in transfected cells; host or cells: Xenopus laevis oocytes (cRNA injection); details: for block of LPA-induced ANO1 currents: DIDS 300 μM, niflumic acid 200 μM, NPPB 200 μM applied 10˜20 min before LPA; for block of LPA current responses by pretreatment: mANO1 oocytes, 1 μM thapsigargin for 3 hours or 10 μM U-73122 for 20 min before 1 μM LPA
Procedure: pSDTF-mANO1 obtained in Reference Example 1 was linearized using BamHI. Complementary RNA was transcribed with SP6 RNA polymerase (mMESSAGE mMACHINE® SP6 Kit, Ambion, Austin, Tex.). After being defolliculated with collagenase (Type IA, Sigma), Xenopus laevis oocytes were injected with 50 ng of the complementary RNAs of mANO1 in 50 nl of diethylpyrocarbonate-treated water. Two to five days after the injection, whole cell currents were recorded using the two-electrode voltage clamp technique. The bath solution contained 96 mM NaCl, 1 mM MgCl2, 5 mM HEPES, 2 mM KCl and 1.8 mM CaCl2 at pH 7.5 and was perfused at 2 ml/min. Experiments were performed at room temperature.
Xenopus oocytes provide a recognized model for endogenous CaCC studies because they express endogenous CaCCs that are required for ‘fertilization depolarization’ (Hartzell, H. C. et al., Mol Pharmacol 51, 683-92 (1997)). Furthermore, the biophysical and pharmacological properties of Xenopus CaCCs are similar to those of mammalian CaCCs (Machaca, K. et al., Calcium-Activated Chloride Channels (ed. Fuller, C. M.) (Academic Press, Amsterdam, 2002)). Accordingly, the present inventors expressed mANO1 in Xenopus oocytes and tested its activation by receptor stimulation using 1 μM LPA (lysophosphatidic acid). CaCCs in Xenopus are known to be activated by LPA (Guo, Z. et al., Proc Natl Acad Sci USA. 93, 14367-72 (1996); and Kim, M. J. et al., Biochem Pharmacol. 59, 241-7 (2000)). […] Moreover, LPA-induced ANO1 currents were outwardly-rectifying, like those of native CaCCs in Xenopus oocytes (Machaca, K. et al., supra) (FIG. 4C). The reversal potential was 37.7±1.05 mV (n=5), which is close to the equilibrium potential of Cl^− in Xenopus oocytes (Weber, W., Biochim Biophys Acta 1421, 213-33 (1999)).
Indeed, LPA (1 μM) applied to oocytes expressing mANO1 induced a large inward current.
Further, pretreatment of 1 μM thapsigargin blocked the IP3-induced current in a mANO1-expressing oocyte (FIGS. 10C and 10D).
as §2

mANO1 [3] = experiment: Whole-cell current response to GPCR stimulation in HEK 293T cells co-transfected with mANO1 and a GPCR; type: cell-based, mouse; details: mANO1 co-expressed in HEK cells with M1R, H1R or AT1R; carbachol 1 μM, histamine 100 μM, angiotensin II 1 μM
Procedure: HEK 293T cells were transfected with pEGFP-N1 (control) (1.0 μg) or pEGFP-N-1-mANO1 (0.8˜1.0 μg) and/or any one of the GPCR cDNAs (1.0 μg) obtained in Reference Example 2, using a FuGENE® HD transfection reagent (Roche Diagnostics, Penzberg, Germany). Transfected cells were maintained in DMEM supplemented with heat inactivated 10% fetal bovine serum (GIBCO BRL, Rockville, Md.) and penicillin-streptomycin at 37 in a 5% CO2 humidified atmosphere. One or two days after transfection, transfected cells were used for biochemical and electrophysiological experiments.
as §1
Under physiological conditions CaCCs are known to be activated by GPCR stimulation. Endothelin-1 is a powerful vasoconstrictor that depolarizes vascular smooth muscle by activating CaCCs (Klockner, U. & Isenberg, G., Pflugers Arch. 418, 168-75 (1991); and Salter, K. J. & Kozlowski, R. Z., J Pharmacol Exp Ther. 279, 1053-62 (1996)). Thus, mANO1 and endothelin receptor subtype A (ETAR) were transfected into HEK 293T cells, along with GFP for visual identification of transfected cells, in accordance with the method of Reference Example 5. Whole cells were used to test the current response of mANO1 to ETAR stimulation. Pipette and bath solutions contained 140 mM N-methyl D-glucamine (NMDG)-Cl, which permitted Cl^− to be used as the main charge carrier. The pipette solution was Ca^2+ free and contained no EGTA. […] In contrast, endothelin-1 evoked currents were minimal in HEK cells transfected with ETAR or control (GFP-transfected only) cells. When mANO1 was transfected alone, 50 nM endothelin-1 evoked appreciable currents; presumably because of the presence of endogenous endothelin receptors in HEK cells.

## O=S(=O)(O)c1cc(N=C=S)ccc1C=Cc1ccc(N=C=S)cc1S(=O)(=O)O [DIDS, 4,4′-diisothiocyanato-stilbene-2,2′-disulfonic acid]
mANO1 [1]
  inhibition of response to second application of endothelin-1 (endothelin-1 induced currents): markedly inhibited
mANO1 [2]; Xenopus oocytes
  block of LPA-induced ANO1 currents: significantly blocked

## O=P(O)(O)O[C@@H]1[C@H](O)[C@H](O)[C@@H](OP(=O)(O)O)[C@H](OP(=O)(O)O)[C@H]1O [IP3, inositol 1,4,5,-triphosphate]
mANO1 [2]; 2 mM IP3 in 50 nl into oocytes expressing ANO1
  inward currents evoked by IP3 micro-injection: evoked robust inward currents

## O=C(O)c1cc([N+](=O)[O-])ccc1NCCCc1ccccc1 [NPPB, 5-nitro-2-(3-phenyl-propylamino)-benzoate]
mANO1 [1]
  inhibition of response to second application of endothelin-1 (endothelin-1 induced currents): markedly inhibited
mANO1 [2]; Xenopus oocytes
  block of LPA-induced ANO1 currents: significantly blocked

## COc1ccc2c(c1)CC[C@@H]1[C@@H]2CC[C@]2(C)[C@@H](NCCCCCCN3C(=O)C=CC3=O)CC[C@@H]12 [U-73122]
mANO1 [2]
  block of LPA current responses by pretreatment: completely blocked

## C[N+](C)(C)CCOC(N)=O [carbachol]
mANO1 [3]
  current responses to GPCR ligands: robust current responses

## CNCCC(Oc1ccc(C(F)(F)F)cc1)c1ccccc1 (stereo not drawn) [fluoxetine]
mANO1 [1]
  inhibition of response to second application of endothelin-1 (endothelin-1 induced currents): markedly inhibited

## NCCc1c[nH]cn1 [histamine]
mANO1 [3]
  current responses to GPCR ligands: robust current responses

## OC(c1cc(C(F)(F)F)nc2c(C(F)(F)F)cccc12)C1CCCCN1 (stereo not drawn) [mefloquine]
mANO1 [1]
  inhibition of response to second application of endothelin-1 (endothelin-1 induced currents): markedly inhibited

## O=C(O)c1ccccc1Nc1ccccc1 [n-phenyl-anthranilic acid]
mANO1 [1]
  inhibition of response to second application of endothelin-1 (endothelin-1 induced currents): markedly inhibited

## O=C(O)c1cccnc1Nc1cccc(C(F)(F)F)c1 [niflumic acid]
mANO1 [1]
  inhibition of response to second application of endothelin-1 (endothelin-1 induced currents): markedly inhibited
mANO1 [2]; Xenopus oocytes
  block of LPA-induced ANO1 currents: significantly blocked

## CC/C(=C(\c1ccccc1)c1ccc(OCCN(C)C)cc1)c1ccccc1 [tamoxifen]
mANO1 [1]
  inhibition of response to second application of endothelin-1 (endothelin-1 induced currents): markedly inhibited

## C/C=C(/C)C(=O)O[C@H]1C(C)=C2[C@H]([C@@H]1OC(=O)CCCCCCC)[C@@](C)(OC(C)=O)C[C@H](OC(=O)CCC)[C@@]1(O)[C@H]2OC(=O)[C@@]1(C)O [thapsigargin]
mANO1 [2]
  block of LPA current responses by pretreatment: completely blocked
mANO1 [2]; pretreatment of 1 μM thapsigargin, mANO1-expressing oocyte
  block of IP3-induced current: blocked

## angiotensin II (DRVYIHPF) [ligand of angiotensin receptor subtype 1 (AT1R)]
mANO1 [3]
  current responses to GPCR ligands: robust current responses

## lysophosphatidic acid [LPA]
mANO1 [2]; 1 μM LPA, Xenopus oocytes, −60 mV
  current response to LPA in mANO1 RNA-injected vs water-injected oocytes: increased about six fold
